Assay results as given in patent US20190282703A1, “ECTONUCLEOTIDE PYROPHOSPHATASE-PHOSPHODIESTERASE (ENPP) CONJUGATES AND USES THEREOF” (Mavupharma, Inc., priority 2018, published 2019).

Key:
human ENPP-1 enzyme [1] = biological target: T1, human ENPP-1 enzyme (Homo sapiens, UniProt P22413); experiment: ENPP1 Enzyme Assay with cGAMP Substrate (AMP-Glo); assay type: biochemical; conditions: for inhibition at 1 µM: 1 uM compound; for inhibition at 1 µM / inhibition at 10 µM: 20 μM 2′3′-cGAMP substrate; for inhibition at 10 µM: 10 uM compound
T1 construct: purchased R&D Systems
T1 sequence (P22413 1-925): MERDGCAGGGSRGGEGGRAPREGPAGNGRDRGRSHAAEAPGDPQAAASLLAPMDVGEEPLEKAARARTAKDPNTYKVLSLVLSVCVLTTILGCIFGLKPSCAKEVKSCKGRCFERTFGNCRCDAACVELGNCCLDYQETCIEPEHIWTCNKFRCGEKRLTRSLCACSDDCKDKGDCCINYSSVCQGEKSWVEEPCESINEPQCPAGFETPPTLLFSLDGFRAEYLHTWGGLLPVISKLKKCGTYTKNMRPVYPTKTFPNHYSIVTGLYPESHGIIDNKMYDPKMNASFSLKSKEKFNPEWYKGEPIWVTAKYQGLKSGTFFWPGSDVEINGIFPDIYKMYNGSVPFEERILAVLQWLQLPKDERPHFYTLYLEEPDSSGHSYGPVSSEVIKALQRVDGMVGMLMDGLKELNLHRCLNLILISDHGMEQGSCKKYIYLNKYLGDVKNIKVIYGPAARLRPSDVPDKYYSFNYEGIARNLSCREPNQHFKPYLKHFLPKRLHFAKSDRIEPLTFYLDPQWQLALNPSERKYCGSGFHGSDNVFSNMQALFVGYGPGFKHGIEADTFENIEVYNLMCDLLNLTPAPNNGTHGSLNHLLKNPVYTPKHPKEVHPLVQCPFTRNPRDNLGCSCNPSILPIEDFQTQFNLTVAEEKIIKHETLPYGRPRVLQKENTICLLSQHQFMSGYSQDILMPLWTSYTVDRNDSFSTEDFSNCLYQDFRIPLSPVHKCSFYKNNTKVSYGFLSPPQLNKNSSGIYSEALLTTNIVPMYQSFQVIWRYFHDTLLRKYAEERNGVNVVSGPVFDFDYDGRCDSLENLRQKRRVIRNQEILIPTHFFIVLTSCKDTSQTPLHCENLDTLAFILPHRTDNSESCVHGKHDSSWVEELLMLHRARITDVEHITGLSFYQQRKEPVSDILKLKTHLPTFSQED
From the text: ENPP1 Enzyme Assay with cGAMP Substrate:
Ectonucleotide pyrophosphatase/phosphodiesterase 1 (ENPP-1) is a transmembrane glycoprotein that hydrolyzes nucleotides and nucleotide derivatives with the formation of nucleoside-5′-monophosphates. ENPP-1 hydrolyzes 2′3′-cGAMP (cGAMP), breaking it down into 5′-AMP and 5′-GMP. The 5′-AMP formed from the reaction is detected using the AMP-Glo® Kit (Promega). The assay kit contains two reagents. The first reagent terminates the enzymatic reaction, removes ATP (using adenylyl cyclase), and converts 5′-AMP produced into ADP (using polyphosphate: AMP phosphotransferase). The second reagent converts ADP to ATP (using adenylate kinase) and generates light from ATP using the luciferin/luciferase reaction. The amount of light measured is proportional to the amount of 5′-AMP produced by ENPP1.
Different concentrations of exemplary ENPP1 inhibitors (synthetic molecules #1-7; see Table 1) were pre-incubated with 5 ng/well of human ENPP-1 enzyme (R&D Systems) for 15 minutes at 37° C. The reaction was initiated by adding 20 μM 2′3′-cGAMP and incubating for 30 minutes at 37° C. The final assay reaction mixture contained a buffer of 50 mM Tris pH 8.0, 250 mM NaCl, 0.5 mM CaCl2, 1 μM ZnCl2 and 1% DMSO. At the end of the incubation, the reaction was stopped by adding 12 μl of AMP-Glo reagent-1 and mixing the reaction uniformly for 5 minutes, followed by incubation at room temperature for one hour. Then 25 μl of AMP Glo reagent-2 was added to the reaction, mixed uniformly with a pipette, and incubated at room temperature for one hour to convert the ADP formed from reagent-1 to ATP and light. The generated light was measured in a Perkin Elmer Victor® instrument. Maximal activity control samples (containing enzyme, substrate, and buffer in the absence of ENPP1 inhibitors: MAX) and background control samples (containing enzyme, substrate, and buffer plus a fully inhibitory concentration (3 μM) of the reference ENPP1 Inhibitor, MV-0000002: MIN) were simultaneously evaluated in order to calculate the percent inhibition at each compound concentration as follows:
(§1) % inhibition=(([MAX−MIN]−[COMPOUND−MIN])/[MAX−MIN])*100
The IC50 values for percent inhibition versus compound concentration were determined by fitting the inhibition curves using a four-parameter variable slope model in GraphPad Prism® software. Ki values are derived from the IC50 values using the Cheng-Prusoff equation: […]

human ENPP-1 enzyme [2] = biological target: T1, human ENPP-1 enzyme; experiment: ENPP1 Enzyme Assay with TMP-pNP Substrate (absorbance at 405 nm); assay type: biochemical; conditions: for inhibition at 10 µM: read-out: TMP-pNP: % inhibition at 10 uM, 10 uM compound, 200 μM TMP-pNP substrate
Method: ENPP1 Enzyme Assay with TMP-pNP Substrate:
ENPP-1 hydrolyzes thymidine 5′monophosphate p-nitrophenyl ester (TMP-pNP) to nucleotide-5′-monophosphate and p-nitrophenol, which is a chromogenic product. The amount of p-nitrophenol product formed is measured using its absorbance at 405 nm, which is directly proportional to enzyme activity. Different concentrations of inhibitors (synthetic molecules #1-7; see Table 1) were pre-incubated with 15 ng/well of human ENPP-1 enzyme (R&D Systems) for 15 minutes at 37° C. The reaction was initiated by adding 200 μM TMP-pNP and incubating for 10 minutes at 37° C. The final assay reaction mixture contained a buffer of 50 mM Tris pH 8.0, 250 mM NaCl, 0.5 mM CaCl2, 1 μM ZnCl2 and 1% DMSO. The amount of product formed was measured directly in a Tecan® spectrophotometer. Maximal activity control samples (containing enzyme, substrate, and buffer in the absence of ENPP1 inhibitors: MAX) and background control samples (containing enzyme, substrate, and buffer plus a fully inhibitory concentration (3 μM) of the reference ENPP1 Inhibitor, MV-0000002: MIN) are simultaneously evaluated in order to calculate the percent inhibition at each compound concentration as follows:
as §1
The IC50 values for percent inhibition versus compound concentration were determined by fitting the inhibition curves (percent inhibition versus inhibitor concentration) using a four-parameter variable slope model in GraphPad Prism® software. Ki values are derived from the IC50 values using the Cheng-Prusoff equation:
Ki=IC50/(1+[TMP-pNP]/Km),

| SMILES | inhibition at 1 µM (human ENPP-1 enzyme [1]) | inhibition at 10 µM (human ENPP-1 enzyme [2]) | Ki (human ENPP-1 enzyme [1]) | inhibition at 10 µM (human ENPP-1 enzyme [1]) | Ki (human ENPP-1 enzyme [2]) |
| --- | --- | --- | --- | --- | --- |
| COc1cc2ncc(C(N)=O)c(N3CCC(CCNS(N)(=O)=O)CC3)c2cc1OC [Ex 2, 6,7-dimethoxy-4-(4-(2-(sulfamoylamino)ethyl)piperidin-1-yl)quinoline-3-carboxamide] | ≥ 75% | ≥ 75% | – | – | – |
| Cn1ncc2c(N3CCC(CCNS(N)(=O)=O)CC3)ncnc21 [Ex 3, N-(2-(1-(1-methyl-1H-pyrazolo[3,4-d]pyrimidin-4-yl)piperidin-4-yl)ethyl)sulfonic amide] | – | – | > 1000 nM | ≥ 75% | > 1000 nM |
| COc1cc2ncnc(N3CCC4(CC3)CN(S(N)(=O)=O)C4)c2cc1OC [Ex 5, 7-(6,7-dimethoxyquinazolin-4-yl)-2,7-diazaspiro[3.5]nonane-2-sulfonamide] | – | ≥ 75% | ≤ 100 nM | ≥ 75% | 100 to 1000 nM |
| COc1cc2ncnc(N3CCc4c(cccc4S(N)(=O)=O)C3)c2cc1OC [Ex 6, 2-(6,7-dimethoxyquinazolin-4-yl)-1,2,3,4-tetrahydroisoquinoline-5-sulfonamide] | ≥ 75% | – | 100 to 1000 nM | – | > 1000 nM |
| COc1cc2ncnc(NCCc3cccc(NS(N)(=O)=O)c3)c2cc1OC [Ex 7, N-(3-(2-((6,7-dimethoxyquinazolin-4-yl)amino)ethyl)phenyl)sulfonic amide] | – | – | 100 to 1000 nM | ≥ 75% | > 1000 nM |
